Source: ChEMBL document CHEMBL1649182, “Binding of faropenem and other beta-lactam agents to penicillin-binding proteins of pneumococci with various beta-lactam susceptibilities” (Antimicrob Agents Chemother, 2009)
Converted amounts (≈) assume the structure as drawn.

Tests used:
Streptococcus pneumoniae [1] = assay: Antimicrobial activity against penicillin-intermediate Streptococcus pneumoniae 3676 by CLSI method; format: functional
[2] = target: T1, Penicillin-binding protein 2B (Streptococcus pneumoniae serotype 4 (strain ATCC BAA-334 / TIGR4), UniProt P0A3M5); assay: Displacement of Biocillin FL from Streptococcus pneumoniae 3413 PBP2B
T1 sequence (P0A3M5 whole entry): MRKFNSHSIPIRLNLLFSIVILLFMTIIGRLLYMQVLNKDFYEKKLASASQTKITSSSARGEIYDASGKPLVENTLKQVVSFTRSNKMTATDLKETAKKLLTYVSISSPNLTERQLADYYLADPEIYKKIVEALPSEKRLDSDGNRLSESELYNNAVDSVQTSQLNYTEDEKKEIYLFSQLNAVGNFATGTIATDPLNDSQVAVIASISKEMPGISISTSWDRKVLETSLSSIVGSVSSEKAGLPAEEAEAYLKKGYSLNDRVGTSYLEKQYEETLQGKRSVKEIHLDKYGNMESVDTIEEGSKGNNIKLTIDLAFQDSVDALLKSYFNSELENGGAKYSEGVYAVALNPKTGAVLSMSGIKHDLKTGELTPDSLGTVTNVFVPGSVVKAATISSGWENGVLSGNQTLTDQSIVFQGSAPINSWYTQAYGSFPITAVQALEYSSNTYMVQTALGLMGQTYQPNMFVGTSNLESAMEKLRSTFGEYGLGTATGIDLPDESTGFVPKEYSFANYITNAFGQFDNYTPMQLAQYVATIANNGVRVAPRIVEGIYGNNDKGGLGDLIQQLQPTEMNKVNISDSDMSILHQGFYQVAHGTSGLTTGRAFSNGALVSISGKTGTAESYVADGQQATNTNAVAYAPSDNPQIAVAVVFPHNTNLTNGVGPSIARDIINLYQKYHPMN

[3] = Displacement of Biocillin FL from Streptococcus pneumoniae 1076 PBP2A
[4] = target: T2, Penicillin-binding protein 1A (Streptococcus pneumoniae serotype 4 (strain ATCC BAA-334 / TIGR4), UniProt Q04707); assay: Displacement of Biocillin FL from Streptococcus pneumoniae 24 PBP1A
T2 sequence (Q04707 whole entry): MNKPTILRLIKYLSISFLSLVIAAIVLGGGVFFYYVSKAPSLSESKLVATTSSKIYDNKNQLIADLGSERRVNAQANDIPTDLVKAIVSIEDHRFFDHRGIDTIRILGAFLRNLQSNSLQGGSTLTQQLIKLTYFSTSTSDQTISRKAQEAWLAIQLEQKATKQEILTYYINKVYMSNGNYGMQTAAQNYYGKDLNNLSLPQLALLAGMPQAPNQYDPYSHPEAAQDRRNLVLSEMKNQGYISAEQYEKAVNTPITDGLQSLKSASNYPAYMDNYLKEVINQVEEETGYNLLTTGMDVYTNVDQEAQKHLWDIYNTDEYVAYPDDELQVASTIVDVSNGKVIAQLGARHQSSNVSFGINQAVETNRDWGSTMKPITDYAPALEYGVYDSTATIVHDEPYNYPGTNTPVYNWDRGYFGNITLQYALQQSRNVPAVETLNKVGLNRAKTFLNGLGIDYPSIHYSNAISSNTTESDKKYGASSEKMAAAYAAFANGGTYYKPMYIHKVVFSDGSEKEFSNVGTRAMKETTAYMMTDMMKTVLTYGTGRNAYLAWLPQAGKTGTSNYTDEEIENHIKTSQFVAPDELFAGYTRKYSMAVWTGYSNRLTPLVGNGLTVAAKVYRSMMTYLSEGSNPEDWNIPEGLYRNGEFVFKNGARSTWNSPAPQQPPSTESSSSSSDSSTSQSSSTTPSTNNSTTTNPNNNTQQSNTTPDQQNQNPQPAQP

[5] = Displacement of Biocillin FL from Streptococcus pneumoniae 24 PBP1B
[6] = Displacement of Biocillin FL from Streptococcus pneumoniae 3676 PBP3
[7] = target: T1, Penicillin-binding protein 2B; assay: Displacement of Biocillin FL from Streptococcus pneumoniae 1077 PBP2B
Streptococcus pneumoniae [8] = assay: Antimicrobial activity against Streptococcus pneumoniae 1564 by CLSI method; format: functional
[9] = target: T3, Penicillin-binding protein 2x (Streptococcus pneumoniae serotype 4 (strain ATCC BAA-334 / TIGR4), UniProt P14677); assay: Displacement of Biocillin FL from Streptococcus pneumoniae 3665 PBP2X
T3 sequence (P14677 whole entry): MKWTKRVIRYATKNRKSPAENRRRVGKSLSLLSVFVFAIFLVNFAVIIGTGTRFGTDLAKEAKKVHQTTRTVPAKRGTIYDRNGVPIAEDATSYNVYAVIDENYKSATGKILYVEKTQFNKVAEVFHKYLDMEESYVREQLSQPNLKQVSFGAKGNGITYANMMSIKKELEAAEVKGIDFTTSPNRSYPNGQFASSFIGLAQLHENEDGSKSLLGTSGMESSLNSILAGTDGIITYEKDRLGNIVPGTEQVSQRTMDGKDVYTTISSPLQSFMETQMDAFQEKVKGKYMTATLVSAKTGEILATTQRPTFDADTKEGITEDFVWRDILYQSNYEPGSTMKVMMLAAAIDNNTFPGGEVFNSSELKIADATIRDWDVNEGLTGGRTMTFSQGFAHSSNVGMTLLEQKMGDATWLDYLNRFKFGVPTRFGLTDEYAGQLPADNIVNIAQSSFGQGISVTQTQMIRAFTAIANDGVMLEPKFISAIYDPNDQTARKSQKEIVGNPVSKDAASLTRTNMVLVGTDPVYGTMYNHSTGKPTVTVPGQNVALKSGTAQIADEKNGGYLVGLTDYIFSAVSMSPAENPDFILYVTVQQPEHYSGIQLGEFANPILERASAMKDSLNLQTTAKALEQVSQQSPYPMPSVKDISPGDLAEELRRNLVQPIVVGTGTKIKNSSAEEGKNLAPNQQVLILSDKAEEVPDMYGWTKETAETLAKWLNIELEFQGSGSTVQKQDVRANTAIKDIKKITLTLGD

Streptococcus pneumoniae [10] = assay: Antimicrobial activity against penicillin-resistant Streptococcus pneumoniae 2527 by CLSI method; format: functional
[11] = Displacement of Biocillin FL from Streptococcus pneumoniae 2527 PBP2A
Streptococcus pneumoniae [12] = assay: Antimicrobial activity against Streptococcus pneumoniae 2688 by CLSI method; format: functional
[13] = Displacement of Biocillin FL from Streptococcus pneumoniae 1076 PBP3
[14] = Displacement of Biocillin FL from Streptococcus pneumoniae 3676 PBP2A
[15] = target: T2, Penicillin-binding protein 1A; assay: Displacement of Biocillin FL from Streptococcus pneumoniae 3413 PBP1A
[16] = Displacement of Biocillin FL from Streptococcus pneumoniae 3665 PBP1B
[17] = target: T1, Penicillin-binding protein 2B; assay: Displacement of Biocillin FL from Streptococcus pneumoniae 3009 PBP2B
[18] = target: T3, Penicillin-binding protein 2x; assay: Displacement of Biocillin FL from Streptococcus pneumoniae 3243 PBP2X
[19] = target: T3, Penicillin-binding protein 2x; assay: Displacement of Biocillin FL from Streptococcus pneumoniae 2527 PBP2X
[20] = Displacement of Biocillin FL from Streptococcus pneumoniae 2527 PBP1B
Streptococcus pneumoniae [21] = assay: Antimicrobial activity against penicillin-sensitive Streptococcus pneumoniae 3009 by CLSI method; format: functional

Structure (SMILES) | MIC (Streptococcus pneumoniae [1]) [mg/L] | IC50 [2] [µM] | IC50 [3] [mg/L] | IC50 [4] [µM] | IC50 [5] [mg/L] | IC50 [6] [mg/L] | IC50 [7] [µM] | MIC (Streptococcus pneumoniae [8]) [mg/L] | IC50 [9] [µM] | MIC (Streptococcus pneumoniae [10]) [mg/L] | IC50 [11] [mg/L] | MIC (Streptococcus pneumoniae [12]) [mg/L] | IC50 [13] [mg/L] | IC50 [14] [mg/L] | IC50 [15] [µM] | IC50 [16] [mg/L] | IC50 [17] [µM] | IC50 [18] [µM] | IC50 [19] [µM] | IC50 [20] [mg/L] | other results
CC1(C)S[C@@H]2[C@H](NC(=O)[C@H](N)c3ccc(O)cc3)C(=O)N2[C@H]1C(=O)O [AMOXICILLIN] | 0.03 (≈ 0.0821 µM) | 0.452 | 0.08 (≈ 0.219 µM) | 0.0109 | 1.103 (≈ 3.02 µM) | 0.019 (≈ 0.052 µM) | 0.0821 | 4 (≈ 10.9 µM) | 0.257 | 1 (≈ 2.74 µM) | 0.051 (≈ 0.14 µM) | 16 (≈ 43.8 µM) | 0.051 (≈ 0.14 µM) | 0.066 (≈ 0.181 µM) | 0.339 | 0.079 (≈ 0.216 µM) | 0.137 | 0.0493 | 0.0109 | 0.029 (≈ 0.0794 µM) | MIC (Streptococcus pneumoniae [21]): 0.016 mg/L (≈ 0.0438 µM)
CO/N=C(\C(=O)N[C@@H]1C(=O)N2C(C(=O)O)=C(COC(N)=O)CS[C@H]12)c1ccco1 [CEFUROXIME] | 0.125 (≈ 0.295 µM) | 0.00118 | 0.004 (≈ 0.00943 µM) | 0.00943 | 0.923 (≈ 2.17 µM) | 0.048 (≈ 0.113 µM) | 2.74 | 8 (≈ 18.9 µM) | 0.033 | 8 (≈ 18.9 µM) | 0.01 (≈ 0.0236 µM) | 4 (≈ 9.43 µM) | 0.021 (≈ 0.0495 µM) | 0.011 (≈ 0.0259 µM) | 0.00236 | 0.016 (≈ 0.0377 µM) | 3.9 | 0.033 | 0.00707 | 0.028 (≈ 0.066 µM) | MIC (Streptococcus pneumoniae [21]): 0.03 mg/L (≈ 0.0707 µM)
C[C@@H](O)[C@H]1C(=O)N2C(C(=O)O)=C([C@H]3CCCO3)S[C@H]12 [FAROPENEM] | 0.125 (≈ 0.438 µM) | 0.498 | 0.035 (≈ 0.123 µM) | 0.0315 | 0.06 (≈ 0.21 µM) | 0.009 (≈ 0.0315 µM) | 0.028 | 0.03 (≈ 0.105 µM) | 0.606 | 1 (≈ 3.5 µM) | 0.025 (≈ 0.0876 µM) | 0.06 (≈ 0.21 µM) | 0.015 (≈ 0.0526 µM) | 0.053 (≈ 0.186 µM) | 0.0561 | 0.012 (≈ 0.0421 µM) | 0.0245 | 0.137 | 0.116 | 0.002 (≈ 0.00701 µM) | MIC (Streptococcus pneumoniae [21]): 0.03 mg/L (≈ 0.105 µM)
C[C@@H](O)[C@H]1C(=O)N2C(C(=O)O)=C(SCCNC=N)C[C@H]12 [IMIPENEM ANHYDROUS] | 0.016 (≈ 0.0534 µM) | 2.89 | 0.054 (≈ 0.18 µM) | 1.47 | 0.71 (≈ 2.37 µM) | 0.188 (≈ 0.628 µM) | 0.154 | 0.125 (≈ 0.418 µM) | 1.98 | 0.25 (≈ 0.835 µM) | 0.059 (≈ 0.197 µM) | 0.25 (≈ 0.835 µM) | 0.032 (≈ 0.107 µM) | 0.115 (≈ 0.384 µM) | 2.07 | 0.077 (≈ 0.257 µM) | 0.154 | 0.635 | 0.0601 | 0.023 (≈ 0.0768 µM) | MIC (Streptococcus pneumoniae [21]): 0.008 mg/L (≈ 0.0267 µM)
CC1(C)S[C@@H]2[C@H](NC(=O)Cc3ccccc3)C(=O)N2[C@H]1C(=O)O [PENICILLIN G] | 0.25 (≈ 0.748 µM) | 0.532 | 0.02 (≈ 0.0598 µM) | 0.0239 | 0.248 (≈ 0.742 µM) | 0.007 (≈ 0.0209 µM) | 0.111 | 16 (≈ 47.8 µM) | 0.123 | 2 (≈ 5.98 µM) | 0.023 (≈ 0.0688 µM) | 8 (≈ 23.9 µM) | 0.016 (≈ 0.0478 µM) | 0.013 (≈ 0.0389 µM) | 0.0598 | 0.029 (≈ 0.0867 µM) | 0.0209 | 0.0209 | 0.0269 | 0.009 (≈ 0.0269 µM) | MIC (Streptococcus pneumoniae [21]): 0.03 mg/L (≈ 0.0897 µM)
